These results are taken from patent publication US10287234B2, “Triglyceride and use thereof” (NITTO PHARMACEUTICAL INDUSTRIES, LTD., priority 2015, dated 2019).

This data set is described as follows: State (liquid or solid) at standard temperature by visual observation. The format is physicochemical. Here is the method:
Whether compounds (I) of the present invention of Examples 1-3, trilinolein of Comparative Example 1 and HYA of Comparative Example 2 are liquid or solid at standard temperature (about 20° C.) was confirmed by visual observation.
Turning to `CCCCC/C=C\C/C=C\CCCCCCCC(=O)OC(COC(=O)CCCCCCCCC(O)C/C=C\CCCCC)COC(=O)CCCCCCCCC(O)C/C=C\CCCCC` (stereo not drawn) [Ex. 2, Di(10-hydroxy-cis-12-octadecenoyl)(cis, cis-9,12-octadecadienoyl)glycerol], the “State at standard temperature (about 20° C.)” value was “liquid”.
Take `CCCCC/C=C\CC(O)CCCCCCCCC(=O)O` (stereo not drawn) [compound 2, 10-Hydroxy-cis-12-octadecenoic Acid, reference compound]: the “State at standard temperature (about 20° C.)” value is “solid”.
To `CCCCC/C=C\C/C=C\CCCCCCCC(=O)OCC(COC(=O)CCCCCCCCC(O)C/C=C\CCCCC)OC(=O)CCCCCCC/C=C\C/C=C\CCCCC` (stereo not drawn) [Ex. 1, Di(cis, cis-9,12-octadecadienoyl)(10-hydroxy-cis-12-octadecenoyl)glycerol] belongs “liquid”.
The entry for `CCCCC/C=C\C/C=C\CCCCCCCC(=O)OCC(COC(=O)CCCCCCC/C=C\C/C=C\CCCCC)OC(=O)CCCCCCC/C=C\C/C=C\CCCCC` [compound 1, Trilinolein, reference compound] is “liquid”.
The entry for “Tri(10-hydroxy-cis-12-octadecenoyl)glycerol [Ex. 3]” is “liquid”.
